This passage reports EC50 results from patent US12516064B2, “Tetrahydropyridopyrimidines and related analogs for inhibiting YAP/TAZ-TEAD” (THE KATHOLIEKE UNIVERSITEIT LEUVEN, priority 2022, dated 2026).

Holding throughout (format): cell-based
One assay has as its system NCI-H226. Description: Mesothelioma cell line proliferation assay (NCI-H226). The settings on record: Homo sapiens, 144 h; NCI-H226 cells; 6 days with compound; cell viability by ATPlite. How it is done:
(§1) Mesothelioma cell lines, NCI-H226 and NCI-H2052 (all sourced from the ATCC cell culture collection) are plated in 96-well plates (Corning® 96 Well White Polystyrene Microplate clear flat bottom, white polystyrene (TC-Treated)), at 1500 cells/well in full medium (RPMI 1640 ATCC modification with L-glutamine, HEPES, Phenol Red, Sodium Pyruvate, High glucose, Low sodium bicarbonate and 10% fetal bovine serum). Cells are incubated overnight at 37° C. in an incubator with 5% CO2. Then compounds, dissolved in DMSO, are added in dose-response. Cells are incubated with compound dilutions for another 6 days at 37° C. in an incubator with 5% CO2. Cell viability is quantitated using the ATPlite kit (Perkin-Elmer) and the luminescence is read-out using an Envision instrument (Perkin-Elmer). The amount of relative light units produced using the ATPlite kit is used to calculated percent of inhibition.
(§2) The activities of some example compounds are depicted in Table 9. The activity ranges A, B and C refer to EC50 values in the mesothelioma cell line proliferation assay as described as follows: “A”: EC50<1 μM; “B”: 1 μM≤EC50≤10 μM and “C”: EC50>10 μM; NT: not tested.

Another assay has as its system NCI-H2052. As to the kind of experiment: Mesothelioma cell line proliferation assay (NCI-H2052). The following applies: Homo sapiens, 144 h; NCI-H2052 cells; 6 days with compound; cell viability by ATPlite. How it is done:
as §1, §2

Assay [1] relates to YAP/TAZ-TEAD transcription. As to the kind of experiment: Reporter gene assay for measuring the inhibition of YAP/TAZ-TEAD transcription. The following applies: Homo sapiens, HEK-293T; Hek293T cells transiently transfected with TEAD-responsive element luciferase reporter; 24 hours incubation. How it is done: Hek293T cells are cultured in DMEM supplemented with 10% fetal bovine serum, Sodium pyruvate, Sodium bicarbonate, L-glutamine. The cells are harvested and transiently transfected with TEAD-responsive element luciferase reporter. Transfected cells are plated in 384-wells plate containing pre-diluted compounds. After 24 hours incubation at 37° C./5% CO2, assay plates were cooled down to RT and levelled to an equal volume per well, prior to the addition of 25 uL luciferase substrate SteadyLite (Perkin Elmer)/well. The plate was shaken for 10 min at 600 rpm, centrifuged for 1 min at 500 rpm and measured with an Envision reader (PerkinElmer). The amount of relative light units produced by the TEAD reporter is used to calculated percent of inhibition.
The percent of reporter inhibition was calculated in the presence of a positive control inhibitor (100% inhibition) versus a condition with the presence of the vehicle basal activity of the reporter (0% inhibition). The ability of a test compound to inhibit this activity was determined as: Percentage inhibition=[1−((RLU determined in the presence of vehicle−RLU determined for sample with test compound present) divided by (RLU determined in the presence of vehicle−RLU determined for sample with positive control inhibitor))]*100 The activities of example compounds tested are depicted in Table 8. The activity ranges A, B and C refer to IC50 values in the reporter gene assay as follows: “A”: EC50<1 μM; “B”: 1 μM≤EC50≤3.0 μM and “C”: EC50>3.0 μM, NT=not tested.

Molecules are shown by their SMILES. Bounds are passed on as bounds.

The EC50 is the midpoint of the concentration-response curve. On to `C=CC(=O)N1Cc2nc(Cc3ccccc3)nc(-c3ccn(C)n3)c2C1` [Cpd. No. 20, 1-(2-benzyl-4-(1-methyl-1H-pyrazol-3-yl)-5,7-dihydro-6H-pyrrolo[3,4-d]pyrimidin-6-yl)prop-2-en-1-one], for which the 50% effective concentration (EC50) in the assay on NCI-H226 is below 1 µM; in the assay on NCI-H2052 it was 1 to 10 µM; in assay [1] it was below 1 µM. As for `C=CC(=O)N1CCc2c(nc(Cc3ccccc3)nc2-c2ccn(C)n2)C1` [Cpd. No. 32, 1-(2-benzyl-4-(1-methyl-1H-pyrazol-3-yl)-5,8-dihydropyrido[3,4-d]pyrimidin-7(6H)-yl)prop-2-en-1-one], the EC50 (in the assay on NCI-H226; with NCI-H2052; in assay [1]) was below 1 µM in each case.

On to `C=CC(=O)N1CCc2c(nc(-c3ccccc3)nc2-c2ccn(CC)n2)C1` [Cpd. No. 59, 1-(4-(1-ethyl-1H-pyrazol-3-yl)-2-phenyl-5,8-dihydropyrido[3,4-d]pyrimidin-7(6H)-yl)prop-2-en-1-one], for which, in assay [1], the half-maximal effective concentration (EC50) was below 1 µM.

For the compound `C=CC(=O)N1CCc2c(nc(-c3ccccc3)nc2-c2ccn(C(C)C)n2)C1` [Cpd. No. 60, 1-(4-(1-isopropyl-1H-pyrazol-3-yl)-2-phenyl-5,8-dihydropyrido[3,4-d]pyrimidin-7(6H)-yl)prop-2-en-1-one], the half-maximal effective concentration (EC50) in assay [1] is below 1 µM. `C=CC(=O)N1CCc2c(nc(-c3ccccc3)nc2-c2cnn(C(F)F)c2)C1` [Cpd. No. 61, 1-(4-(1-(difluoromethyl)-1H-pyrazol-4-yl)-2-phenyl-5,8-dihydropyrido[3,4-d]pyrimidin-7(6H)-yl)prop-2-en-1-one]: the concentration for a half-maximal effect (EC50) in assay [1] is 1 to 3 µM. Still for that read-out and setting: then `C=CC(=O)N1CCc2c(nc(-c3ccccc3)nc2-c2ccnn2C)C1` [Cpd. No. 62, 1-(4-(1-methyl-1H-pyrazol-5-yl)-2-phenyl-5,8-dihydropyrido[3,4-d]pyrimidin-7(6H)-yl)prop-2-en-1-one], with 1 to 3 µM; and `C=CC(=O)N1CCc2c(nc(-c3ccccc3)nc2-c2cccnc2)C1` [Cpd. No. 63, 1-(2-phenyl-4-(pyridin-3-yl)-5,8-dihydropyrido[3,4-d]pyrimidin-7(6H)-yl)prop-2-en-1-one], with below 1 µM; and `C=CC(=O)N1CCc2c(nc(-c3ccccc3)nc2-c2ccccc2)C1` [Cpd. No. 64, 1-(2,4-diphenyl-5,8-dihydropyrido[3,4-d]pyrimidin-7(6H)-yl)prop-2-en-1-one], with below 1 µM. In assay [1], `C=CC(=O)N1CCc2c(nc(-c3ccccc3)nc2-c2ccncc2)C1` [Cpd. No. 66, 1-(2-phenyl-4-(pyridin-4-yl)-5,8-dihydropyrido[3,4-d]pyrimidin-7(6H)-yl)prop-2-en-1-one] displayed a half-maximal effective concentration (EC50) of 1 to 3 µM. As for `C=CC(=O)N1CCc2c(nc(-c3ccccc3)nc2-c2ccccn2)C1` [Cpd. No. 67, 1-(2-phenyl-4-(pyridin-2-yl)-5,8-dihydropyrido[3,4-d]pyrimidin-7(6H)-yl)prop-2-en-1-one], the EC50 in assay [1] was below 1 µM.

Turning to `C=CC(=O)N1CCc2cnc(-c3ccccc3)nc2C1` [Cpd. No. 68, 1-(2-phenyl-5,8-dihydropyrido[3,4-d]pyrimidin-7(6H)-yl)prop-2-en-1-one], in assay [1], the EC50 was below 1 µM.

As for `C=CC(=O)N1CCc2c(nc(-c3ccc(F)cc3)nc2-c2ccn(C(F)F)n2)C1` [Cpd. No. 70, 1-(4-(1-(difluoromethyl)-1H-pyrazol-3-yl)-2-(4-fluorophenyl)-5,8-dihydropyrido[3,4-d]pyrimidin-7(6H)-yl)prop-2-en-1-one], the half-maximal effective concentration (EC50) in assay [1] was below 1 µM. Take `C=CC(=O)N1CCc2c(nc(-c3ccc(C(F)(F)F)cc3)nc2-c2ccn(Cc3cccnc3)n2)C1` [Cpd. No. 72, 1-(4-(1-(pyridin-3-ylmethyl)-1H-pyrazol-3-yl)-2-(4-(trifluoromethyl)phenyl)-5,8-dihydropyrido[3,4-d]pyrimidin-7(6H)-yl)prop-2-en-1-one]: in assay [1], the half-maximal effective concentration (EC50) was below 1 µM. `Cn1ccc(-c2nc(-c3ccc(C(F)(F)F)cc3)nc3c2CCN(C(=O)CC#N)C3)n1` [Cpd. No. 75, 3-(4-(1-methyl-1H-pyrazol-3-yl)-2-(4-(trifluoromethyl)phenyl)-5,8-dihydropyrido[3,4-d]pyrimidin-7(6H)-yl)-3-oxopropanenitrile] displayed an EC50 in assay [1] of 1 to 3 µM. The compound `C=CC(=O)N1CCc2c(-c3ccn(C)n3)nc(-c3ccc(C(F)(F)F)cc3)nc2C1C` (stereo not drawn) [Cpd. No. 76, 1-(8-methyl-4-(1-methyl-1H-pyrazol-3-yl)-2-(4-(trifluoromethyl)phenyl)-5,8-dihydropyrido[3,4-d]pyrimidin-7(6H)-yl)prop-2-en-1-one] registered an EC50 in assay [1] below 1 µM. In the case of `Cn1ccc(-c2nc(-c3ccc(C(F)(F)F)cc3)nc3c2CCN(C#N)C3)n1` [Cpd. No. 78, 4-(1-methyl-1H-pyrazol-3-yl)-2-(4-(trifluoromethyl)phenyl)-5,8-dihydropyrido[3,4-d]pyrimidine-7(6H)-carbonitrile], in assay [1], the concentration for a half-maximal effect (EC50) lay in the range of 1 to 3 µM.

As for `Cn1ccc(-c2nc(-c3ccc(C(F)(F)F)cc3)nc3c2CCN(S(C)(=O)=O)C3)n1` [Cpd. No. 79, 4-(1-methyl-1H-pyrazol-3-yl)-7-(methylsulfonyl)-2-(4-(trifluoromethyl)phenyl)-5,6,7,8-tetrahydropyrido[3,4-d]pyrimidine], in assay [1], the half-maximal effective concentration (EC50) is 1 to 3 µM. Take `C=CS(=O)(=O)N1CCc2c(nc(-c3ccc(C(F)(F)F)cc3)nc2-c2ccn(C)n2)C1` [Cpd. No. 80, 4-(1-methyl-1H-pyrazol-3-yl)-2-(4-(trifluoromethyl)phenyl)-7-(vinylsulfonyl)-5,6,7,8-tetrahydropyrido[3,4-d]pyrimidine]: the 50% effective concentration (EC50) in assay [1] was below 1 µM. `C=CC(=O)N1CCc2c(nc(-c3ccc(C(F)(F)F)cc3)nc2-c2nnn(C)n2)C1` [Cpd. No. 81, 1-(4-(2-methyl-2H-tetrazol-5-yl)-2-(4-(trifluoromethyl)phenyl)-5,8-dihydropyrido[3,4-d]pyrimidin-7(6H)-yl)prop-2-en-1-one] had a concentration for a half-maximal effect (EC50) in assay [1] below 1 µM. The compound `C=CC(=O)N1CCc2c(nc(-c3ccc(C(F)(F)F)cc3)nc2-c2nnnn2C)C1` [Cpd. No. 82, 1-(4-(1-methyl-1H-tetrazol-5-yl)-2-(4-(trifluoromethyl)phenyl)-5,8-dihydropyrido[3,4-d]pyrimidin-7(6H)-yl)prop-2-en-1-one] returned an EC50 in assay [1] below 1 µM. In assay [1], `CN(C)C/C=C/C(=O)N1CCc2c(nc(-c3ccc(C(F)(F)F)cc3)nc2-c2ccn(C)n2)C1` [Cpd. No. 83, (E)-4-(dimethylamino)-1-(4-(1-methyl-1H-pyrazol-3-yl)-2-(4-(trifluoromethyl)phenyl)-5,8-dihydropyrido[3,4-d]pyrimidin-7(6H)-yl)but-2-en-1-one] registered an EC50 below 1 µM.

Compound `Cn1ccc(-c2nc(-c3ccc(C(F)(F)F)cc3)nc3c2CCN(C(=O)C2=CCCC2)C3)n1` [Cpd. No. 84, cyclopent-1-en-1-yl(4-(1-methyl-1H-pyrazol-3-yl)-2-(4-(trifluoromethyl)phenyl)-5,8-dihydropyrido[3,4-d]pyrimidin-7(6H)-yl)methanone] showed an EC50 in assay [1] below 1 µM. The compound `CCC(=O)N1CCc2c(nc(-c3ccc(C(F)(F)F)cc3)nc2-c2ccn(C)n2)C1` [Cpd. No. 85, 1-(4-(1-methyl-1H-pyrazol-3-yl)-2-(4-(trifluoromethyl)phenyl)-5,8-dihydropyrido[3,4-d]pyrimidin-7(6H)-yl)propan-1-one] registered an EC50 in assay [1] below 1 µM. In turn, `CCC(=O)N1CCc2c(nc(-c3ccc(C(F)(F)F)cc3)nc2-c2cn(C)nn2)C1` [Cpd. No. 91, 1-(4-(1-methyl-1H-1,2,3-triazol-4-yl)-2-(4-(trifluoromethyl)phenyl)-5,8-dihydropyrido[3,4-d]pyrimidin-7(6H)-yl)propan-1-one] returned an EC50 in assay [1] of 1 to 3 µM.

`CCC(=O)N1CCc2c(nc(-c3ccc(C(F)(F)F)cc3)nc2-c2cnn(C)n2)C1` [Cpd. No. 93, 1-(4-(2-methyl-2H-1,2,3-triazol-4-yl)-2-(4-(trifluoromethyl)phenyl)-5,8-dihydropyrido[3,4-d]pyrimidin-7(6H)-yl)propan-1-one] registered an EC50 in assay [1] of 1 to 3 µM. The same measure, in the same setting: then `C/C=C/C(=O)N1CCc2c(nc(C3CCC(F)(F)CC3)nc2-c2ccn(C)n2)C1` [Cpd. No. 95, (E)-1-(2-(4,4-difluorocyclohexyl)-4-(1-methyl-1H-pyrazol-3-yl)-5,8-dihydropyrido[3,4-d]pyrimidin-7(6H)-yl)but-2-en-1-one], with below 1 µM.
